Reference: patent publication US20260218130A1, “METHOD FOR CULTURING ANIMAL CELLS” (Ajinomoto Co., Inc., priority 2023, published 2026)

Experiments:
HEK293 cells = experiment: Proliferation of HEK293 cells in suspension culture system; type: cell-based, human; details: hinokitiol 500 nM in Basal 10 or in-house medium, 20 days, FIG. 3
Description: As HEK293, Viral Production Cells 2.0 (Thermo Fisher Scientific: A49784), which is a clonal cell line derived from the HEK293 cell line, was used. The HEK293 cell line is widely known as a cell line derived from human embryonic kidney.
Using a 125 mL Erlenmeyer flask (VIOLAMO, SEF125V), Viral Production Cells 2.0, a clonal cell line derived from the HEK293 cell line, were seeded into 30 ml of Viral Production Medium (Thermo Fisher Scientific: A4817901) supplemented with GlutaMAX™ Supplement (Thermo Fisher Scientific, Cat No. 35050061) to a final concentration of 4 mM.
The cells were cultured with agitation in an incubator set at 37° C. and 8% CO2, and were subcultured twice. Thereafter, the cells were subcultured and cultured in a medium based on 30 mL of Basal 10 (Ajinomoto Healthy Supply, Co., Inc., CELLIST™ Basal media BASAL10) or an in-house medium supplemented with hinokitiol to a final concentration of 500 nM. The process of measuring the viable cell count every 3 or 4 days using a Vi-CELL BLU Cell Viability Analyzer (Beckman Coulter) before subculturing was repeated, and the cells were cultured for a total of 20 days.

[1] = tested on: CD8-positive human T cells; experiment: Proliferation of CD8-positive human T cells in serum-free medium; type: cell-based; details: hinokitiol 0.49 or 0.0049 μM, cell count after 7 days, FIG. 4
Description: CD3 Monoclonal Antibody (Thermo Fisher Scientific, Cat No. 16-0037-85) was mixed with PBS and added to a 24-well plate. After incubating at 37° C. for 1 hour, the plate was washed 3 times with PBS. As a base medium, CTS™ OpTmizer™ T Cell Expansion (Thermo Fisher Scientific, Cat No. A104851) supplemented with CTS™ Immune Cell SR (Thermo Fisher Scientific, Cat No. A2596101), 200 mM L-glutamine (Thermo Fisher Scientific, Cat No. 25030081), P/S/Amphotericin B (Fujifilm-Wako, Cat No. 161-23181), and IL2 (PeproTech, Cat No. 200-02) was used. In the coated 24-well plates, medium groups with hinokitiol added as shown in Table 3 were prepared, and CD8+ T cells (LONZA, Cat No. 2W-300) were cultured in each respective group. A cell count was performed after 7 days, and the proliferation rate was calculated.

bovine muscle stem cells = experiment: Proliferation of bovine muscle stem cells in serum-free medium; type: cell-based; details: FIG. 1
Source text: Muscle tissue was collected from edible bovine shank meat, and CD56-positive cells were isolated using a Magnetic-Activated Cell Sorting (MACS) system to obtain bovine muscle stem cells. The bovine muscle stem cells obtained in (1-1) were suspended in a serum medium. As the serum medium, a medium was used in which Advanced DMEM (Thermo Fisher Scientific, Cat No. 12491015) was supplemented with 20% FBS (Thermo Fisher Scientific, Cat No. 10270106), 10% horse serum (Thermo Fisher Scientific, Cat No. 16050-130), and 1% GlutaMAX™ Supplement (Thermo Fisher Scientific, Cat No. 35050061). The cell suspension was seeded into a 12-well plate (BD FALCON, Cat #353046) coated with 1 μg/cm^2 fibronectin (Corning, Cat #F2006) at a cell density of 25,000 cells/0.2 mL, and the medium was changed every other day. On the fourth day of culture, the cells were subcultured into a hinokitiol-containing serum-free medium, a hinokitiol- and iron-containing serum-free medium, an iron-containing serum-free medium, a transferrin- and iron-containing serum-free medium, a transferrin-containing serum-free medium, or a serum-free medium not containing hinokitiol and transferrin, and the medium was changed every other day. […] Cell counting and subculturing were performed every 4 days, and the growth rate for two consecutive passages from day 4 to day 12 was calculated.

[2] = tested on: porcine subcutaneous preadipocytes (PSPA); experiment: Proliferation of porcine subcutaneous preadipocytes (PSPA) in serum-free medium; type: cell-based; details: hinokitiol 0.25 or 0.5 μM + FeSO4•7H2O 1 μM, serum-free medium (transferrin-free); 4 days; FIG. 2
Description: As the porcine subcutaneous preadipocytes (PSPA), an adipose precursor cell line derived from porcine fetal subcutaneous tissue, described in Nakajima, et al. Biochem Biophys Res Commun. 2003 Sep. 26; 309(3): 702-8, was obtained from RIKEN RCB and used. The porcine subcutaneous preadipocytes (PSPA) from (2-1) were cultured using a serum medium. As the serum medium, a medium was used in which DMEM (Gibco, Cat No. 10313-021) was supplemented with 10% FBS (Thermo Fisher Scientific, Cat No. 10270106), 1% GlutaMAX™ Supplement (Thermo Fisher Scientific, Cat No. 35050061), and 1% Penicillin-Streptomycin (Nacalai Tesque, Cat No. 09367-34). As the serum-free medium, a medium based on the aforementioned E8 medium was used. PSPA were seeded into a 12-well plate at a density of 10,000 cells/cm^2, and the cells were subcultured into a serum medium, a transferrin-containing serum-free medium, or a hinokitiol- and iron-containing serum-free medium (transferrin-free), with medium exchange performed every other day. Cell counting was performed 4 days after the start of culturing, and the fold increase in cell number was calculated.

Compound: CC(C)c1cccc(=O)c(O)c1 [hinokitiol]
- cell proliferation (viable cell count) (HEK293 cells): cell proliferation-promoting effect
- cell proliferation (fold increase, proliferation rate) [1]: cell proliferation-promoting effect
- cell proliferation-promoting effect on enhancing the iron concentration (bovine muscle stem cells; hinokitiol 0.03 or 0.30 μM + FeSO4•7H2O 1.0 or 10.1 μM, serum-free medium, in some cases): further improved
- cell proliferation (fold increase, growth rate for two consecutive passages) (bovine muscle stem cells; hinokitiol 0.03 or 0.30 μM in E8-based serum-free medium, transferrin-free, day 4 to day 12): cell proliferation-promoting effect
- cell proliferation (fold increase in cell number) [2]: cell proliferation-promoting effect
